Among the data in US20250188059A1, “NOVEL COMPOUND AND USE THEREOF FOR INHIBITING CHECKPOINT KINASE 2” (ARUM THERAPEUTICS INC, priority 2022, published 2025) are IC50 values, retold here.

Where two headings read alike, the source gives them in different places. A value given as a limit tells only on which side of the number the result lay.

The IC50 is the concentration at which inhibition is half-maximal.

One assay addresses Chk2 kinase (Homo sapiens (Human), UniProt O96017). The assay can be described thus: Chk2 kinase inhibitory activity (LanthaScreen TR-FRET). Format: biochemical. To be noted: graded. In outline: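 Recombinant Chk1 or Chk2 was mixed with substrate and compound, and the reaction was started with ATP and run 1 h at room temperature. Phosphorylation was detected with a Tb-labelled anti-CREB pSer133 antibody for 30 min, read as the TR-FRET Em520/Em490 ratio. IC50 was fitted from duplicate-well means.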
A general note: Time-resolved FRET reads energy transfer from a long-lived donor to a nearby acceptor.

Assay [1] concerns human breast cancer cell line MCF-7. The assay can be described thus: Cancer cell growth inhibition test (CellTiter-Glo). Format: cell-based. The settings on record: MCF-7, 72 hours. In outline: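 MCF-7 cells (about 3000/well) pre-incubated 24 hours at 37° C, then exposed 72 hours to serially diluted compound, alone or combined with cisplatin or doxorubicin. Viability read by CellTiter-Glo luminescence as % of DMSO-only wells; values are means of three wells.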

The next assay has as its target Chk1 kinase (Homo sapiens (Human), UniProt O14757). The assay is described as follows: Chk1 kinase inhibitory activity (LanthaScreen TR-FRET). Format: biochemical. To be noted: graded. How it is done: The compounds of Examples 1 to 66 were diluted at various concentrations and transferred to a 384-well plate by 5 μl, and 10 μl of a mixed solution (2×) of Chk1 kinase (Thermo, P3040) or Chk2 kinase (Thermo, PV3367) and a substrate (Thermo, PV3508) was added to wells treated with the compounds. 5 μl of an ATP solution at a 4× concentration was added to the test well and reacted at room temperature for 1 hour. 20 μl of LanthaScreen Terbium-CREB p-Ser 133 antibody (Thermo, PV3542) was added to the reaction well and incubated at room temperature for 30 minutes. Conversion data was measured by an EnVision 2014 multi label reader (PerkinElmer). The activity for each concentration was determined by the ratio (FRET ratio=FR) of the value obtained by dividing the value at 520 nm by the value at 490 nm among the emission wavelength values for each wavelength (Em520/Em490). The results obtained for each concentration of the compounds were the average values obtained in two wells, and the IC50 values of the compounds were calculated using PRIZM software for analysis of the results. IC50 in Table 7 was graded as follows.

[2] abbreviates: Homo sapiens, MCF7, 72 h, graded, read-out: Celltiter glo analysis (IC50).

Chk1 kinase, sequence (O14757 whole entry): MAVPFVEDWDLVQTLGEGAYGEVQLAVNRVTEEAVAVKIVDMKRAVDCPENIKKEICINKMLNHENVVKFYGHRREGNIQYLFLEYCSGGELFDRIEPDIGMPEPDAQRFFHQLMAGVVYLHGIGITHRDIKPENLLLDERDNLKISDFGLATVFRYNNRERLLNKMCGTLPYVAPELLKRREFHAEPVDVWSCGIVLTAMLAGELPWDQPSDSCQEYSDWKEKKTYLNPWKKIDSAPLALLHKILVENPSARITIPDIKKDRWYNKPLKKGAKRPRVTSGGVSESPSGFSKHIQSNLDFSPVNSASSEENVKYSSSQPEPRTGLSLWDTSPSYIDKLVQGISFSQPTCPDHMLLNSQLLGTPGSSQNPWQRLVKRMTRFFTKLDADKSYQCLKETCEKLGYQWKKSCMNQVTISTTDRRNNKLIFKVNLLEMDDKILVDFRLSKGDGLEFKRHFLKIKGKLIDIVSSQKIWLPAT
Chk2 kinase, sequence (O96017 whole entry): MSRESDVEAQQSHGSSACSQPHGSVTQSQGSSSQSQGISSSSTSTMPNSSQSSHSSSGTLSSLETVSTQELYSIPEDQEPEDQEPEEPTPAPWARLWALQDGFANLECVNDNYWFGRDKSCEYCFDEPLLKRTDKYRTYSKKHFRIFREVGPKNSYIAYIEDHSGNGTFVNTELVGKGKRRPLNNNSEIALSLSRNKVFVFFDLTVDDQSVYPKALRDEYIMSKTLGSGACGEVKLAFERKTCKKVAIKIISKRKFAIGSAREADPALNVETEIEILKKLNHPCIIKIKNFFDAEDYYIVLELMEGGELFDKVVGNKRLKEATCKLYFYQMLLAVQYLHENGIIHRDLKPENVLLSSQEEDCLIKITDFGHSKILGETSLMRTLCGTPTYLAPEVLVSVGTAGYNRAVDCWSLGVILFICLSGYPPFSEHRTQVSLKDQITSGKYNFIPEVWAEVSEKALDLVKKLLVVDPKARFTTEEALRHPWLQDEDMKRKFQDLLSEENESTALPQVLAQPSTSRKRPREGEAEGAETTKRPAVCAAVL

Regarding `Nc1ncc(-c2ccnc(-c3cnn(CC(F)(F)F)c3)c2)nc1C(=O)N[C@H]1CCCNC1` [Example 21, (S)-3-amino-N-(piperidin-3-yl)-6-(2-(1-(2,2,2-trifluoroethyl)-1H-pyrazol-4-yl)pyridin-4-yl)pyrazine-2-carboxamide], the figures for the IC50 (on Chk2 kinase; in assay [1] (setting [2]); on Chk1 kinase) were at most 10 nM, 10000 to 100000 nM and 10 to 100 nM, respectively.
For `Cn1cc(-c2ccc(F)c(-c3cnc(N)c(C(=O)N[C@H]4CCCNC4)n3)c2)cn1` [Example 18, (S)-3-amino-6-(2-fluoro-5-(1-methyl-1H-pyrazol-4-yl)phenyl)-N-(piperidin-3-yl)pyrazine-2-carboxamide] the same measures were 10 to 100 nM, 10000 to 100000 nM and above 1000 nM.
For `Cn1cc(-c2cccc(-c3cnc(N)c(C(=O)NC4CCC5(CC5)NC4)n3)c2)cn1` (racemic) [Example 41, 3-amino-6-(3-(1-methyl-1H-pyrazol-4-yl)phenyl)-N-(4-azaspiro[2.5]octan-6-yl)pyrazine-2-carboxamide] the same measures were at most 10 nM, above 100000 nM and 10 to 100 nM.
For `CC1(C)Cc2c(-c3ccc(F)c(-c4cnc(N)c(C(=O)N[C@H]5CCCNC5)n4)c3)cnn2C1` [Example 43, (S)-3-amino-6-(5-(5,5-dimethyl-5,6-dihydro-4H-pyrrolo[1,2-b]pyrazol-3-yl)-2-fluorophenyl)-N-(piperidin-3-yl)pyrazine-2-carboxamide] the same measures were at most 10 nM, 10000 to 100000 nM and 100 to 1000 nM.
With `CC1(C)Cc2c(-c3ccc(F)c(-c4cnc(N)c(C(=O)N[C@H]5CCC6(CC6)NC5)n4)c3)cnn2C1` [Example 46, (S)-3-amino-6-(5-(5,5-dimethyl-5,6-dihydro-4H-pyrrolo[1,2-b]pyrazol-3-yl)-2-fluorophenyl)-N-(4-azaspiro[2.5]octan-6-yl)pyrazine-2-carboxamide], the IC50 at Chk2 kinase was 10 to 100 nM; in assay [1] (setting [2]), 10000 to 100000 nM; against Chk1 kinase, above 1000 nM.
Consider `CC(C)(O)Cn1cc(-c2cc(-c3cnc(N)c(C(=O)N[C@@H]4CNCC(F)(F)C4)n3)c(F)cn2)cn1` [Example 32, (S)-3-amino-N-(5,5-difluoropiperidin-3-yl)-6-(5-fluoro-2-(1-(2-hydroxy-2-methylpropyl)-1H-pyrazol-4-yl)pyridin-4-yl)pyrazine-2-carboxamide], for which the concentration for half-maximal inhibition (IC50) was above 1000 nM at Chk2 kinase; 33100 nM in assay [1] (Homo sapiens, MCF7, 72 h, alone, read-out: Administered alone (IC50)); 10000 to 100000 nM in assay [1] (setting [2]); 4580 nM in assay [1] (combination with cisplatin, read-out: Administered in combination with cisplatin (IC50)); 910 nM in assay [1] (combination with doxorubicin, read-out: Administered in combination with doxorubicin (IC50)); above 1000 nM on Chk1 kinase.
Turning to `N#CCn1cc(-c2cccc(-c3cnc(N)c(C(=O)N[C@@H]4CNCC[C@H]4O)n3)c2)cn1` [Example 25, 3-amino-6-(3-(1-(cyanomethyl)-1H-pyrazol-4-yl)phenyl)-N-((3R,4R)-4-hydroxypiperidin-3-yl)pyrazine-2-carboxamide], the IC50 at Chk2 kinase was 10 to 100 nM; in assay [1] (setting [2]), above 100000 nM; against Chk1 kinase, above 1000 nM.
With `Cn1cc(-c2cccc(-c3cnc(N)c(C(=O)N[C@H]4CCCNC4)n3)c2)cn1` [Example 16, (S)-3-amino-6-(3-(1-methyl-1H-pyrazol-4-yl)phenyl)-N-(piperidin-3-yl)pyrazine-2-carboxamide], the half-maximal inhibitory concentration (IC50) at Chk2 kinase was at most 10 nM; in assay [1] (setting [2]), 10000 to 100000 nM; at Chk1 kinase it was 10 to 100 nM.
For `Nc1ncc(-c2nccc(-c3cnn(CC(F)(F)F)c3)n2)nc1C(=O)N[C@H]1CCCNC1` [Example 39, (S)-3-amino-N-(piperidin-3-yl)-6-(4-(1-(2,2,2-trifluoroethy)-1H-pyrazol-4-yl)pyrimidin-2-yl)pyrazine-2-carboxamide] the same measures were at most 10 nM, 10000 to 100000 nM and 100 to 1000 nM.
